Publication PMC11345766, “Computational Design of Pore-Forming Peptides with Potent Antimicrobial and Anticancer Activities” (Journal of Medicinal Chemistry, 2024)
Ends that are not written are not given here.

What was measured:
[1] = test system: MOLM-13, MEC-1 and SU-DHL-4 cancer cell lines; conditions: 24 h
Description: Anticancer activity of peptides against acute myeloid leukemia MOLM-13, chronic lymphocytic leukemia MEC-1, and diffuse large B-cell lymphoma SU-DHL-4 cell lines was tested using a WST cell viability assay. Cells were cultured in 75 cm^2 culture flasks at 37 °C in 5% CO2 according to the DSMZ recommendations before the start of the experiment. Then, the cells were seeded into 96-well plates in quadruplicate at 2.5 × 10^4 cells/well for SU-DHL-4, and 5 × 10^4 cells/well for MEC-1 and MOLM-13. Cells were treated with either peptides or PBS alone (negative control) for 24–72 h at 37 °C in 5% CO2. After incubation, cell viability was measured by WST-1 (Roche) according to the manufacturer’s instructions using Tecan microplate reader Infinite M200 PRO Plex and expressed as percentage compared to control.

[2] = test system: murine macrophages RAW 264.7; conditions: 24 h
In short: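 RAW 264.7 murine macrophages seeded at 4 × 10^4 cells/well in DMEM with 2% FBS, then exposed to peptides (2–128 μM) for 24 h at 37 °C. Viability by MTT (0.5 mg/mL, 4 h) reduction to formazan, dissolved in acidified isopropanol, read at OD570; untreated cells as negative control.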

[3] = single intraperitoneal dose at 10 times the MIC
Description: Neutropenic mice were infected intramuscularly (in the right thigh) with 10^6 cells per mL of Gram-negative A. baumannii (ATCC 19606).
(a) Schematic of the deep thigh infection model in which bacteria are injected intramuscularly at day 4 and peptides are administered intraperitoneally also at day 4 to assess their anti-infective activity. Mice were euthanized 4 days postinfection (day 8). Each group consisted of six mice (n = 6), and the bacterial loads used to infect the mice derived from three different inocula. […] Polymyxin B (0.006 mg/kg) and levofloxacin (0.014 mg/kg) were used as the reference antibiotics. Statistical significance was done using one-way ANOVA followed by Dunnett’s test. Violin plots represent the median, upper quartile, and lower quartile. (c) Mouse weight was monitored to exclude possible toxic effects of the peptides.
Six-week-old female CD-1 mice (obtained from Charles River; stock number 18679700-022) underwent neutropenia induction via two intraperitoneal doses of cyclophosphamide (150 mg kg^–^1) administered with a 72 h interval. One day later, the mice received an intramuscular injection containing A. baumannii ATCC 19606 (10^6 CFU mL^–1) in the right thigh. Bacteria were cultured in LB broth, washed twice with PBS (pH 7.4), and resuspended to the desired concentration. […] Polymyxin B (0.006 mg/kg) and levofloxacin (0.014 mg/kg) were used as the reference antibiotics. Prior to each injection, mice were anesthetized with isoflurane and their respiratory rate and pedal reflexes were monitored. Subsequently, we observed the infection establishment and euthanized the mice. The infected area was excised 4 days postinfection (i.e., 8 days after the beginning of the experiment), homogenized using a bead beater for 20 min (25 Hz), and 10-fold serially diluted for CFU quantification on MacConkey agar plates. Each experimental group comprised three mice. All experiments were conducted blindly, and no animals were excluded from the analysis. Statistical significance was assessed using one-way ANOVA followed by Dunnett’s test on log10-transformed data to mitigate outlier effects; p values are reported for each group, with all groups compared to the untreated control group.

[4] = test system: E. faecium BM4147 (AMX, VAN); conditions: E. faecium / BM4147 / AMX, VAN / Prot. b; Prot. b
[5] = test system: S. aureus ATCC BAA-1556 (MET); conditions: S. aureus / ATCC BAA-1556 / MET / Prot. d; Prot. d
[6] = test system: S. aureus NRS1 (MRSA or VISA); conditions: S. aureus / NRS1 / MRSA or VISA / Prot. a; Prot. a
[7] = test system: S. aureus ATCC 29213 (Clinical); conditions: S. aureus / ATCC 29213 / Clinical / Prot. c; Prot. c
[8] = test system: P. aeruginosa K11 (IMI, MER, CTZ, PIT); conditions: P. aeruginosa / K11 / IMI, MER, CTZ, PIT / Prot. c; Prot. c
E. faecalis JH2-2 (WT) = conditions: E. faecalis / JH2-2 / WT / Prot. b; Prot. b
[9] = test system: E. faecium Z906 (VAN, TEI, LNZ); conditions: E. faecium / Z906 / VAN, TEI, LNZ / Prot. c; Prot. c
[10] = test system: E. faecium ATCC 700221 (VAN, TEI); conditions: E. faecium / ATCC 700221 / VAN, TEI / Prot. d; Prot. d
[11] = test system: K. pneumoniae E1267 (GEN, AMI); conditions: K. pneumoniae / E1267 / GEN, AMI / Prot. c; Prot. c
P. aeruginosa PA14 (WT) = conditions: P. aeruginosa / PA14 / WT / Prot. d; Prot. d
E. faecalis UCN41 (VAN) = conditions: E. faecalis / UCN41 / VAN / Prot. b; Prot. b
P. aeruginosa PA01 (WT) = conditions: P. aeruginosa / PA01 / WT / Prot. d; Prot. d
[12] = test system: P. aeruginosa K12 (AMI, IMI, MER, CTZ, PIT); conditions: P. aeruginosa / K12 / AMI, IMI, MER, CTZ, PIT / Prot. c; Prot. c
[13] = test system: E. faecium ATCC 19434T (WT); conditions: E. faecium / ATCC 19434T / WT / Prot. b; Prot. b
[14] = test system: E. faecalis ATCC 700802 (VAN); conditions: E. faecalis / ATCC 700802 / VAN / Prot. d; Prot. d
[15] = test system: K. pneumoniae ATCC 700603 (ESBL); conditions: K. pneumoniae / ATCC 700603 / ESBL / Prot. a; Prot. a
[16] = test system: P. aeruginosa NCTC 13437 (ESBL); conditions: P. aeruginosa / NCTC 13437 / ESBL / Prot. a; Prot. a

Substance	IC50 [1] [µM]	IC50 [2] [µM]	Change in mouse weight [3]	MIC [4] [µM]	MIC [5] [µM]	MIC [6] [µM]	MIC [7] [µM]	MIC [8] [µM]	MIC (E. faecalis JH2-2 (WT)) [µM]	MIC [9] [µM]	MIC [10] [µM]	MIC [11] [µM]	MIC (P. aeruginosa PA14 (WT)) [µM]	MIC (E. faecalis UCN41 (VAN)) [µM]	MIC (P. aeruginosa PA01 (WT)) [µM]	MIC [12] [µM]	MIC [13] [µM]	MIC [14] [µM]	MIC [15] [µM]	MIC [16] [µM]
H-HHHHLKKILKKLFQFINQLDNQLQDIHHHH-OH [LP40]	1 to 20	–	–	–	–	–	–	–	–	–	–	–	–	–	–	–	–	–	–	–
KKKKLKKILKKLFQFINQLDNQLQDIKKKK-NH2 [LP18]	–	25	no significant change in mouse weight	4	> 60	> 16	> 32	16	> 32	16	> 60	> 32	3.1	> 32	3.1	> 32	15	> 60	4	11
KKKKLKKILKKLFQFINQLDNQLQDIKQNK-NH2 [LP1]	< 10	44	no significant change in mouse weight	16	> 60	> 16	> 32	> 32	> 32	> 32	12.5	> 32	3.1	> 32	3.1	> 32	> 32	> 60	4	> 16
